Data set [1] deals with HEK-293 cells. The data set can be described thus: Cytotoxicity assessment, Cell Titer-Glo, 72 hours. Format: cell-based, human. Particulars: CTG viability at 72 hrs. The source says: Immunofluorescence‐based assays have been previously used to analyse global changes in H3K4me3 as a measure of KDM5 activity, but the global change can be affected by other factors such as cytotoxicity.17 We therefore employed chromatin immunoprecipitation and sequencing (ChIP‐seq) as a more accurate method to quantify the H3K4me3 level at transcriptional start sites (TSS) as a read‐out for inhibition of KDM5 activity. […] Compounds 4, 7 and 9 were selected for H3K4me3 ChIP‐seq experiments and quantification.18 […]
(§1) Covalent binding RapidFire
Recombinant KDM5B (MW = 55152 Da) was incubated at 1 μM with the appropriate compound at 10 μM for 2 hours at 37 °C in 50 mM MES buffer at pH 7.0. Samples were injected in RapidFire 365 and MS was detected in QTOF mass spectrometer. Data were acquire and analysed with Agilent Mass Hunter software. […]
(§2) Digestion with elastase (1 µL) overnight at 37 °C followed by purification with SEP-PAK C18 columns and resuspension of the final sample in 98% MilliQ-H20 2% CH3CN 0.1% TFA gave the final sample ready to inject. […]
NanoBRET™ Nano-Glo® substrate (Promega UK) and Extracellular NanoLuc Inhibitor (Promega UK) were added at final concentrations of 10 and 20 µM, respectively. Readings were performed within 5 minutes using a PHERAstar FSX (BMG Labtech) with 450 and 610 nm filters. […] BRET ratios are expressed as milliBRET units (mBU), where 1 mBU corresponds to […]

For data set [2], the target named is T1, KDM4B (Homo sapiens, UniProt O94953).
T1 sequence (O94953 1-1096): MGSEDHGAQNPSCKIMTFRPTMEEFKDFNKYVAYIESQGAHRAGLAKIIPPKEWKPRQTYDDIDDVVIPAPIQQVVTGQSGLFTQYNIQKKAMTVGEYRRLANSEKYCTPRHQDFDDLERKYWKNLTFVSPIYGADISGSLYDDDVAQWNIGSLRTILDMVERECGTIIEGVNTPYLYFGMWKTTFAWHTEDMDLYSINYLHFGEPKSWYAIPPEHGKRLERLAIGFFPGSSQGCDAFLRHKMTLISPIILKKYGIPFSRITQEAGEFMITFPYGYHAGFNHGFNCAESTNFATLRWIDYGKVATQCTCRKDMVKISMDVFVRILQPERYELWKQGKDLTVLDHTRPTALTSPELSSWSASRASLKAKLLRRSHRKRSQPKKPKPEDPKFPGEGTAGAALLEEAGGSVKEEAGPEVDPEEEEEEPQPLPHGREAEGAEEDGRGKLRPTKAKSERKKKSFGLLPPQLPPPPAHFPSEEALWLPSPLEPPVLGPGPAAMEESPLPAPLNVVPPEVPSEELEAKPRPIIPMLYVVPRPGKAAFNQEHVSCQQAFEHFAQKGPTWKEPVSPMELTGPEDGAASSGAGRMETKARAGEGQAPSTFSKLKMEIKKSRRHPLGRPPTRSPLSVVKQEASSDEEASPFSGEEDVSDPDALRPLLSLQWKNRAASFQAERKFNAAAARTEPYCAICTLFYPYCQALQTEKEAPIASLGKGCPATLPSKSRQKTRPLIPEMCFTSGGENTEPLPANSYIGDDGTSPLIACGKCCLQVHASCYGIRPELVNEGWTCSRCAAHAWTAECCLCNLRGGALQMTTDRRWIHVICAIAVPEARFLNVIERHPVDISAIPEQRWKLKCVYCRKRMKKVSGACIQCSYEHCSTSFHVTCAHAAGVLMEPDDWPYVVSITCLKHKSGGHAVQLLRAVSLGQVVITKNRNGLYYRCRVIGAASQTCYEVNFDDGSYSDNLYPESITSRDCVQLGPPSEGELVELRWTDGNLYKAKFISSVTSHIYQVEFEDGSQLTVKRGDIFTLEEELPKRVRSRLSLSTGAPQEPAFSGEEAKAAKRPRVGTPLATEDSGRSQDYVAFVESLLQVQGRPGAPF
The data set can be described thus: Covalent binding by MS, KDM4B. Particulars: same conditions as with KDM5B. Here is the method:
Covalent binding of the inhibitors with KDM5B was confirmed through MS‐labelling experiments (Figure 3). […] The specific covalent binding to KDM5B explains the improved selectivity over KDM5C and KDM4B compared to non‐covalent inhibitor 2.
as §1
Recombinant KDM5B (MW = 55152 Da) was incubated at 1 μM with the appropriate compound at 10 μM for 2 hours at 37 °C in 50 mM MES buffer at pH 7.0. Samples were injected in RapidFire 365 and MS was detected in QTOF mass spectrometer. Data were acquire and analysed with Agilent Mass Hunter software.
Recombinant KDM5B was incubated at 1 μM with the appropriate compound at 10 μM for 2 hours at 37 °C in 200 µL of 50 mM MES buffer at pH 7.0. […]
as §2
NanoBRET™ Nano-Glo® substrate (Promega UK) and Extracellular NanoLuc Inhibitor (Promega UK) were added at final concentrations of 10 and 20 µM, respectively. Readings were performed within 5 minutes using a PHERAstar FSX (BMG Labtech) with 450 and 610 nm filters. Corrected BRET ratios were calculated and is defined as the ratio if the emission at 610/450 nm for experimental samples (i.e. those treated with tracer) minus the emission at 610/450 nm for control samples (DMSO controls). […]

As for `CN(CCc1cnn(-c2nccc3c(=O)[nH]cnc23)c1)Cc1cccc(NC(=O)CCl)c1` [Compound 5], the “cytotoxicity in HEK cells” value in data set [1] is given as “with the exception of 5, compounds were not cytotoxic”.
For the molecule `CN(C)C/C=C/C(=O)Nc1cccc(CN(C)CCc2cnn(-c3nccc4c(=O)[nH]cnc34)c2)c1` [Compound 6], the “covalent binding to KDM4B by MS” value in data set [2] was “no covalent binding”.

Source of the values: PMC6391970, “Design, Synthesis and Characterization of Covalent KDM5 Inhibitors” (Angewandte Chemie (International Ed. in English), 2018).
